The values below come from PubChem BioAssay AID504551 (Southern Research Specialized Biocontainment Screening …, 2011).

The subject of the test is MAGI-CCR5/HeLa-R5-16 cell fusion, beta-gal luminescence. Description: HIV-1 entry blockers, R5 Env-mediated fusion – MAGI-CCR5 and HeLa-R5-16 cells, 2% serum, set 2, dose response (AID 504551).
Regarding `COc1ccc(Cn2c(O)cc3nn(-c4nc5ccccc5s4)c(=O)c-3c2C)cc1`, the half-inhibitory concentration (IC50) was 3.57 µM.

As to `Cc1c2c(=O)n(-c3nc4ccccc4s3)nc-2cc(O)n1Cc1ccccc1Cl`, the IC50 is 3.4 µM.

For `Cc1c2c(=O)n(-c3nc4ccccc4s3)nc-2cc(O)n1Cc1ccccc1`, the IC50 is 3.94 µM.

For `Cc1c2c(=O)n(-c3nc4ccccc4s3)nc-2cc(O)n1Cc1cccs1`, the IC50 was 3.5 µM.

`Cc1c2c(=O)n(-c3nc4ccccc4s3)nc-2cc(O)n1CCc1ccc(O)cc1`: the IC50 was 3.36 µM.

In the case of `Cc1c2c(=O)n(-c3nc4ccccc4s3)nc-2cc(O)n1Cc1ccc(F)cc1`, the IC50 is 3.42 µM.

Take `COc1ccc(CCn2c(O)cc3nn(-c4nc5ccccc5s4)c(=O)c-3c2C)cc1`: the IC50 is 3.49 µM.

Take `Cc1c2c(=O)n(-c3nc4ccccc4s3)nc-2cc(O)n1CCc1cccs1`: the concentration for half-maximal inhibition (IC50) is 3.7 µM.

As to `COc1ccccc1Cn1c(O)cc2nn(-c3nc4ccccc4s3)c(=O)c-2c1C`, the IC50 was 3.73 µM.

As for `Cc1c2c(=O)n(-c3nc4ccccc4s3)nc-2cc(O)n1Cc1ccncc1`, the IC50 was 3.94 µM.

Take `Cc1c2c(=O)n(-c3nc4ccccc4s3)nc-2cc(O)n1CCC(C)C`: the 50% inhibitory concentration (IC50) is 3.25 µM.

On to `Cc1c2c(=O)n(-c3nc4ccccc4s3)nc-2cc(O)n1C1CC1`, for which the IC50 is 3.75 µM.

On to `Cc1c2c(=O)n(-c3nc4ccccc4s3)nc-2cc(O)n1Cc1cccnc1`, for which the IC50 was 3.64 µM.

As usually defined, the IC50 is the concentration needed to halve the response being measured.
